For the compound `O=C(O)CC1CCCN(C(=O)c2ccc(NC(=O)COc3ccccc3)cc2)c2ccccc21` (stereo not drawn) [Example 721, 5-carboxymethyl-1-[4-(2-phenoxyacetylamino)benzoyl]-2,3,4,5-tetrahydro-1H-benzazepine], the melting point – broadly, the temperature, or range, at which the solid turns liquid – fell in the range of 102 to 106 °C. On to `COc1cc(NCCOc2ccccc2C)ccc1C(=O)N1CCCC(CC(=O)N2CCN(C)CC2)c2cc(Cl)ccc21` (stereo not drawn) [Example 139, 7-chloro-5-[(4-methyl-1-piperazinyl)carbonylmethyl]-1-[2-methoxy-4-[2-(2-methylphenoxy)ethylamino]benzoyl}-2,3,4,5-tetrahydro-1H-benzazepine], for which the melting point lay within 160 to 161 °C. `O=C(Nc1ccc(C(=O)N2CCCCc3ccccc32)c(Cl)c1)OCc1ccncc1` [Example 725, 1-{4-[(4-pyridyl)methoxycarbonylamino]-2-chlorobenzoyl}-2,3,4,5-tetrahydro-1H-benzazepine] gave a melting point of 181 to 184 °C. Compound `O=C(Nc1ccc(C(=O)N2CCCCc3ccccc32)c(Cl)c1)OCCOc1ccccc1` [Example 726, 1-[4-(2-phenoxyethoxycarbonylamino)-2-chlorobenzoyl]-2,3,4,5-tetrahydro-1H-benzazepine] registered a melting point of 144 to 146 °C. `COc1cc(NCc2ccccc2C)ccc1C(=O)N1CCCC(CC(=O)N2CCN(C)CC2)c2cc(Cl)ccc21` (stereo not drawn) [Example 142, 7-chloro-5-[(4-methyl-1-piperazinyl)carbonylmethyl]-1-[2-methoxy-4-(2-methylbenzylamino)benzoyl]-2,3,4,5-tetrahydro-1H-benzazepine] registered a melting point of 153 to 154.5 °C. As for `O=C(c1ccc(-c2ccccc2)cc1Cl)N1CCCC(Cc2nnn[nH]2)c2ccccc21` (stereo not drawn) [Example 730, 5-(5-tetrazolyl)methyl-1-(4-phenyl-2-chlorobenzoyl)-2,3,4,5-tetrahydro-1H-benzazepine], the melting point was 191 to 194 °C. With `COc1cc(C(=O)N2CCCCc3cc(Cl)ccc32)ccc1NC(=O)N(C)C` [Example 146, 7-chloro-1-(3-methoxy-4-dimethylaminocarbonylaminobenzoyl)-2,3,4,5-tetrahydro-1H-benzazepine] the figure was 230 to 232 °C; with `Cc1cc(NC(=O)CO)ccc1C(=O)N1CCCCc2cc(Cl)ccc21` [Example 722, 7-chloro-1-[2-methyl-4-(2-hydroxyacetylamino)benzoyl]-2,3,4,5-tetrahydro-1H-benzazepine], 194 to 195 °C; with `CN1CCN(c2ccc(C(=O)N3CCCCc4ccccc43)c(Cl)c2)CC1` [Example 728, 1-[4-(4-methyl-1-piperazinyl)-2-chlorobenzoyl]-2,3,4,5-tetrahydro-1H-benzazepine], 138 to 140 °C.

Source of the values: patent US6335327B1, “Benzoheterocyclic derivatives” (Otsuka Pharmaceuticals Co., Ltd., priority 1994, dated 2002).
